Each structure is given as a SMILES string. Inconclusive results and toxic doses are left out. Square brackets hold non-standard residues; d marks the D form. Peptide text beside a SMILES is read from it. * marks the point of attachment. ξ: configuration not given here. Cbz = O=C(OCc1ccccc1)*; ξV = CC(C)C(N)C(=O)O; ClAc = O=C(CCl)*; Sar = CNCC(=O)O

The assay has as its system L1210 leukemia ip in BDF1 mice, survival T/C. The assay can be described thus: NCI In Vivo Anticancer Drug Screen. Data for tumor model L1210 Leukemia (intraperitoneal) in B6D2F1 (BDF1) mice. The note with it: endpoint: mean survival time, higher = longer survival. The procedure, abridged:
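Tumor was transplanted into mice, which were then dosed with test compound or vehicle alone. Survival was recorded for each group, and the treated figure was expressed relative to the control figure.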

[1] abbreviates: dose: 25.0 mg/kg/injection, schedule: Q01DX009 (ip), vehicle: saline.
Where [2] appears, read: dose: 50.0 mg/kg/injection, schedule: Q01DX009 (ip), vehicle: saline.
The mark [3] stands for this setting: dose: 100.0 mg/kg/injection, schedule: Q01DX001 (ip), vehicle: saline.
Where [4] appears, read: dose: 100.0 mg/kg/injection, schedule: Q04DX003 (ip), vehicle: saline.
The mark [5] stands for this setting: dose: 200.0 mg/kg/injection, schedule: Q04DX003 (ip), vehicle: saline.
Setting [6] is: dose: 400.0 mg/kg/injection, schedule: Q04DX003 (ip), vehicle: saline.
The mark [7] stands for this setting: dose: 100.0 mg/kg/injection, schedule: Q01DX001 (ip), vehicle: saline with Tween-80.
The mark [8] stands for this setting: dose: 200.0 mg/kg/injection, schedule: Q01DX001 (ip), vehicle: saline with Tween-80.
[9] abbreviates: dose: 400.0 mg/kg/injection, schedule: Q01DX001 (ip), vehicle: saline with Tween-80.
Where [10] appears, read: dose: 200.0 mg/kg/injection, schedule: Q01DX001 (ip), vehicle: saline.
Setting [11] is: dose: 400.0 mg/kg/injection, schedule: Q01DX001 (ip), vehicle: saline.
Setting [12] is: dose: 50.0 mg/kg/injection, schedule: Q01DX001 (ip), vehicle: saline.
Setting [13] is: dose: 100.0 mg/kg/injection, schedule: Q04DX003 (ip), vehicle: Klucel (hydroxypropylcellulose) (HPC).
Where [14] appears, read: dose: 200.0 mg/kg/injection, schedule: Q04DX003 (ip), vehicle: Klucel (hydroxypropylcellulose) (HPC).
[15] abbreviates: dose: 400.0 mg/kg/injection, schedule: Q04DX003 (ip), vehicle: Klucel (hydroxypropylcellulose) (HPC).

As to `COc1cccc2cc[nH]c12`, the T/C reads like this: (dose: 50.0 mg/kg/injection, schedule: Q01DX001 (ip), vehicle: carboxymethylcellulose (CMC)) 105 % of control; (dose: 100.0 mg/kg/injection, schedule: Q01DX001 (ip), vehicle: carboxymethylcellulose (CMC)) 100 % of control; (dose: 200.0 mg/kg/injection, schedule: Q01DX001 (ip), vehicle: carboxymethylcellulose (CMC)) 112 % of control; (dose: 400.0 mg/kg/injection, schedule: Q01DX001 (ip), vehicle: carboxymethylcellulose (CMC)) 100 % of control.

`CC(=O)OCC1OC(n2cc(F)c(=O)[nH]c2=O)CC1OC(C)=O` (stereo unspecified): the T/C (dose: 3.0 mg/kg/injection, schedule: Q01DX009 (ip), vehicle: saline) was 98 % of control; the T/C (dose: 6.0 mg/kg/injection, schedule: Q01DX009 (ip), vehicle: saline) was 95 % of control; the T/C (dose: 12.0 mg/kg/injection, schedule: Q01DX009 (ip), vehicle: saline) was 95 % of control; the T/C (dose: 24.0 mg/kg/injection, schedule: Q01DX009 (ip), vehicle: saline) is 106 % of control; the T/C under setting [1] was 111 % of control; the T/C under setting [2] was 122 % of control. In addition, where the note is “dose: 200.0 mg/kg/injection, schedule: Q01DX009 (ip), vehicle: saline”, the T/C was 123 % of control.

In the case of `O=C1C(Cl)=C(NCCCCCCNC2=C(Cl)C(=O)c3ccccc3C2=O)C(=O)c2ccccc21`, the T/C under setting [3] is 106 % of control.

Regarding `CC(C)C(NC(=O)CNC(=O)CCl)C(=O)O` (stereo unspecified) (ClAc-Gly-[ξV]-OH), the T/C reads like this: (dose: 100.0 mg/kg/injection, schedule: Q04DX003 (ip), vehicle: saline with Tween-80) 101 % of control; (dose: 200.0 mg/kg/injection, schedule: Q04DX003 (ip), vehicle: saline with Tween-80) 101 % of control.

For the compound `[N-]=[N+]=NCC(=O)NCc1cnccn1`, the T/C is, setting by setting: (dose: 12.5 mg/kg/injection, schedule: Q01DX009 (ip), vehicle: saline) 114 % of control; under setting [1], 105 % of control; under setting [2], 112 % of control; under setting [4], 102 % of control; under setting [5], 96 % of control; under setting [6], 96 % of control.

For `NCCCC(N)C(=O)NCCCCCCCCCCNC(=O)C(N)CCCN` (stereo unspecified), the T/C is 93 % of control (dose: 10.0 mg/kg/injection, schedule: Q01DX Z (ip), vehicle: saline) and 101 % of control (dose: 30.0 mg/kg/injection, schedule: Q01DX Z (ip), vehicle: saline).

Take `N#Cc1ccccc1OCCCOc1ccccc1C#N`: the T/C is 100 % of control (dose: 75.0 mg/kg/injection, schedule: Q01DX009 (ip), vehicle: Klucel (hydroxypropylcellulose) (HPC)); 99 % of control (dose: 150.0 mg/kg/injection, schedule: Q01DX009 (ip), vehicle: Klucel (hydroxypropylcellulose) (HPC)); 106 % of control (dose: 300.0 mg/kg/injection, schedule: Q01DX009 (ip), vehicle: Klucel (hydroxypropylcellulose) (HPC)).

In the case of `CC(C)CCCC(C)C1CCC2C3CCC(CCO)C(C)(CCO)C3CCC12C` (stereo unspecified), the T/C reads like this: under setting [7], 97 % of control; under setting [8], 92 % of control; under setting [9], 94 % of control.

Turning to `O=C1NCCNC1=O`, the T/C under setting [4] is 101 % of control, the T/C under setting [5] was 100 % of control and the T/C under setting [6] was 105 % of control.

Turning to `CC(=O)c1ccc(N2CCN(c3ccc(C(C)=O)cc3)CC2)cc1`, the T/C under setting [4] is 93 % of control, the T/C under setting [5] was 95 % of control and the T/C under setting [6] was 98 % of control.

Turning to `C[Si](F)(c1cccc2ccccc12)c1cccc2ccccc12`, the T/C under setting [7] is 97 % of control, the T/C under setting [8] was 103 % of control and the T/C under setting [9] is 102 % of control.

`OCC1OC(n2c(Cl)nc3ccccc32)C(O)C1O` (stereo unspecified): the T/C under setting [3] is 97 % of control, the T/C under setting [10] is 103 % of control and the T/C under setting [11] was 103 % of control.

In the case of `S=c1nc[nH]c2c1ncn2C1CCCO1` (stereo unspecified), where the note is “dose: 75.0 mg/kg/injection, schedule: Q01DX Z (ip), vehicle: methylcellulose (MC)”, the T/C was 159 % of control.

Turning to `O=C1c2ccccc2-c2cccc3cccc1c23`, the T/C by setting is: (dose: 50.0 mg/kg/injection, schedule: Q01DX001 (ip), vehicle: saline sonified) 94 % of control; (dose: 100.0 mg/kg/injection, schedule: Q01DX001 (ip), vehicle: saline sonified) 95 % of control; (dose: 100.0 mg/kg/injection, schedule: Q01DX009 (ip), vehicle: gum acacia) 105 % of control; (dose: 200.0 mg/kg/injection, schedule: Q01DX001 (ip), vehicle: saline sonified) 97 % of control; (dose: 200.0 mg/kg/injection, schedule: Q01DX009 (ip), vehicle: gum acacia) 96 % of control; (dose: 400.0 mg/kg/injection, schedule: Q01DX009 (ip), vehicle: gum acacia) 102 % of control.

Take `CC(=O)C(O)COP(=O)(O)O` (stereo unspecified): the T/C under setting [12] is 96 % of control, the T/C under setting [3] was 100 % of control, the T/C under setting [10] is 102 % of control and the T/C under setting [11] was 100 % of control.

Turning to `CS(=O)(=O)Nc1ccc(C(=O)O)cc1`, the T/C runs as follows: (dose: 100.0 mg/kg/injection, schedule: Q01DX009 (ip), vehicle: Klucel (hydroxypropylcellulose) (HPC)) 97 % of control; under setting [13], 100 % of control; (dose: 200.0 mg/kg/injection, schedule: Q01DX009 (ip), vehicle: Klucel (hydroxypropylcellulose) (HPC)) 98 % of control; under setting [14], 107 % of control; (dose: 400.0 mg/kg/injection, schedule: Q01DX009 (ip), vehicle: Klucel (hydroxypropylcellulose) (HPC)) 98 % of control; under setting [15], 105 % of control.

For `CCOP(=O)(OCC)Oc1ccc(SC)cc1`, the T/C runs as follows: (dose: 5.0 mg/kg/injection, schedule: Q01DX001 (ip), vehicle: saline) 96 % of control; (dose: 10.0 mg/kg/injection, schedule: Q01DX001 (ip), vehicle: saline) 98 % of control.

For `CCOC(=O)C1CCC(=O)O1` (stereo unspecified), the T/C runs as follows: (dose: 100.0 mg/kg/injection, schedule: Q04DX002 (ip), vehicle: saline) 104 % of control; (dose: 200.0 mg/kg/injection, schedule: Q04DX002 (ip), vehicle: saline) 101 % of control; (dose: 400.0 mg/kg/injection, schedule: Q04DX002 (ip), vehicle: saline) 97 % of control.

As for `CCCCCCCCCCCCOC(=N)N1CCCC1`, the T/C runs as follows: (dose: 8.8 mg/kg/injection, schedule: Q01DX Z (ip), vehicle: saline) 96 % of control; (dose: 13.3 mg/kg/injection, schedule: Q01DX Z (ip), vehicle: saline) 102 % of control; (dose: 20.0 mg/kg/injection, schedule: Q01DX Z (ip), vehicle: saline) 100 % of control.

As for `COc1ccc(CN2CCCN(Cc3ccc(OC)cc3OC)C2c2cc(Cl)cc(Cl)c2O)c(OC)c1`, the T/C is, setting by setting: under setting [12], 92 % of control; under setting [3], 97 % of control; under setting [10], 92 % of control; under setting [11], 90 % of control.

On to `CN(CC(N)=O)C(=O)CNC(=O)OCc1ccccc1` (Cbz-Gly-[Sar]-NH2), for which the T/C runs as follows: under setting [13], 96 % of control; under setting [14], 99 % of control; under setting [15], 97 % of control.

For the compound `C=CCn1c(-c2cccs2)nc2c(=S)nc[nH]c21`, the T/C reads like this: (dose: 65.0 mg/kg/injection, schedule: Q01DX009 (ip), vehicle: steriod suspending solution) 95 % of control; (dose: 180.0 mg/kg/injection, schedule: Q01DX009 (ip), vehicle: steriod suspending solution) 88 % of control; (dose: 400.0 mg/kg/injection, schedule: Q01DX001 (ip), vehicle: steriod suspending solution) 89 % of control; (dose: 800.0 mg/kg/injection, schedule: Q01DX001 (ip), vehicle: steriod suspending solution) 89 % of control.

As for `Oc1c(Br)cc(F)cc1Br`, the T/C was 98 % of control (dose: 100.0 mg/kg/injection, schedule: Q04DX002 (ip), vehicle: saline with Tween-80) and 94 % of control (dose: 200.0 mg/kg/injection, schedule: Q04DX002 (ip), vehicle: saline with Tween-80).

As to `C[N+]1(CCC[N+]2(C)CC3CC=CCC3C2)CCOCC1` (stereo unspecified), the T/C is, setting by setting: under setting [4], 92 % of control; under setting [5], 92 % of control; under setting [6], 92 % of control.

The values above are taken from PubChem BioAssay AID248 (DTP/NCI, 2004).
